Numbered stars: 1 amine (or outer) side, 2 acyl side, 3 side chain; on linkers, the order of the positions; unused ones are H or OH. Bridge positions count the residues as written; N and C are the ends. Square brackets hold non-standard residues; d marks the D form. Peptide text beside a SMILES is read from it. X10 = COc1ccc2c(c1)c(C[C@H](N[*:1])C(=O)[*:2])cn2CC(=O)O; Hyp = O=C(O)[C@@H]1C[C@@H](O)CN1; NMeNle = CCCC[C@H](NC)C(=O)O; NMeA = CN[C@@H](C)C(=O)O; Dab = NCC[C@H](N)C(=O)O; Dap = NC[C@H](N)C(=O)O
Biological target: T1, PD-1-Ig binding to PD-L1-TVMV-His (PD-L1-His) (Homo sapiens, UniProt Q9NZQ7)
T1 construct: hPDL1 (19-239)-TVMV-His; TVMV protease cleavage site (C); made in house; host or cells: HEK293T cells
T1 sequence (Q9NZQ7 with tags, fused parts or gaps): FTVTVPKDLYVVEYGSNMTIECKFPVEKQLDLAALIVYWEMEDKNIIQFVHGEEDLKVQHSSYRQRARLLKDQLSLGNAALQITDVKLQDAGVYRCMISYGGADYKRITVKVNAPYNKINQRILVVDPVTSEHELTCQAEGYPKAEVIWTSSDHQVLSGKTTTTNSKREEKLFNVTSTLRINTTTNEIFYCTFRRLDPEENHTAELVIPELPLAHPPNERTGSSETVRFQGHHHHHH
Assay: PD-1/PD-L1 Homogenous Time-Resolved Fluorescence (HTRF) binding assay
Conditions: PD-1-Ig (20 nM)/PD-L1-His (10 nM); range class

IC50: 1 to 9.9 nM
SMILES: CCCC[C@H]1C(=O)N(C)[C@@H](CCCC)C(=O)N[C@@H](CC(C)C)C(=O)N[C@H](C(=O)NCC(N)=O)CSCC(=O)N[C@@H](Cc2ccc(O)cc2)C(=O)N(C)[C@@H](C)C(=O)N[C@@H](CC(N)=O)C(=O)N2CCC[C@H]2C(=O)N[C@@H](CN)C(=O)N[C@@H](CC(C)C)C(=O)N2C[C@H](O)C[C@H]2C(=O)N[C@@H](Cc2c[nH]c3ccccc23)C(=O)N[C@@H](CCN)C(=O)N[C@@H](Cc2cn(CC(=O)O)c3ccc(OC)cc23)C(=O)N1C [Example 10506] ({CH2CO}-Y[NMeA]NP[Dap]L[Hyp]W[Dab][X10][NMeNle][NMeNle]LCG-NH2; thioether N-14)
